In patent US9139532B2, “Pyrazolyl guanidine F1F0-atpase inhibitors and therapeutic uses thereof” (Lycera Corporation, priority 2010, dated 2015):
Like-named read-outs stand apart in the source and are kept apart here.

Tests used:
[1] = system: Ramos cells; assay: Cytotoxicity in Ramos cells; type: cell-based; details: Homo sapiens, read-out: Ramos Cell EC50
[2] = molecular target: T1, F1F0-ATPase (Bos taurus, UniProt P13621); assay: Inhibition of F1F0-ATPase activity in synthesizing ATP; type: biochemical; details: inhibition of ATP synthesis by F1F0-ATPase; read-out: ATP Syn IC50
T1 construct: from tissue

Row | SMILES | IC50 [2] [µM] | EC50 ([1]; cytotoxicity in Ramos cells) [µM] | EC50 ([1]; Ramos) [µM]
1 | N#Cc1cccc(C(=O)/N=C(/NCc2ccc(F)cc2Cl)Nc2cc(C(F)(F)F)[nH]n2)c1 [Compound A-82] | < 10 |  | < 10
2 | CCC(C)(C)N/C(=N/C(=O)c1ccc(C(F)(F)F)cc1)Nc1cc(C(F)(F)F)n[nH]1 [Compound A-93] | < 10 | < 10 | 
3 | C[C@H](N/C(=N\C(=O)c1ccc(C(F)(F)F)cc1)Nc1cc(C(F)(F)F)n[nH]1)C1CCCCC1 [Compound A-94] | < 10 | < 10 | 
4 | O=C(/N=C(\Nc1cc(C(F)(F)F)n[nH]1)NC1CCOCC1)c1ccc(C(F)(F)F)cc1 [Compound A-95] | < 10 | < 10 | 
5 | O=C(/N=C(\Nc1cc(C(F)(F)F)n[nH]1)NC1CCCOC1)c1ccc(C(F)(F)F)cc1 (stereo not shown) [Compound A-96] | < 10 | < 10 | 
6 | COCC(C)N/C(=N/C(=O)c1ccc(C(F)(F)F)cc1)Nc1cc(C(F)(F)F)n[nH]1 (stereo not shown) [Compound A-97] | < 10 | < 10 | 
7 | CC(C)N/C(=N/C(=O)c1ccc(F)c(F)c1)Nc1cc(C(F)(F)F)n[nH]1 [Compound A-98] | < 10 | < 10 | 
8 | O=C(/N=C(\Nc1cc(C(F)(F)F)n[nH]1)NC1CCC1)c1ccc(F)c(F)c1 [Compound A-99] | < 10 | < 10 | 
9 | O=C(/N=C(/Nc1cc(C(F)(F)F)n[nH]1)NC1CCCC1)c1ccc(F)c(F)c1 [Compound A-100] | < 10 | < 10 | 
10 | CCC(C)(C)N/C(=N/C(=O)c1ccc(F)c(F)c1)Nc1cc(C(F)(F)F)n[nH]1 [Compound A-101] | < 10 | < 10 | 
11 | C[C@@H](N/C(=N\C(=O)c1ccc(F)c(F)c1)Nc1cc(C(F)(F)F)n[nH]1)C1CCCCC1 [Compound A-102] | < 10 | < 10 | 
12 | O=C(/N=C(/Nc1cc(C(F)(F)F)n[nH]1)NC1CCOC1)c1ccc(F)c(F)c1 (stereo not shown) [Compound A-103] | < 10 | < 10 | 
13 | O=C(/N=C(\Nc1cc(C(F)(F)F)n[nH]1)NC1CCOCC1)c1ccc(F)c(F)c1 [Compound A-104] | < 10 | > 10 | 
14 | O=C(/N=C(\Nc1cc(C(F)(F)F)n[nH]1)NC1CCCOC1)c1ccc(F)c(F)c1 (stereo not shown) [Compound A-105] | < 10 | < 10 | 
15 | COCC(C)N/C(=N/C(=O)c1ccc(F)c(F)c1)Nc1cc(C(F)(F)F)n[nH]1 (stereo not shown) [Compound A-106] | < 10 | < 10 | 
16 | CC(C)N/C(=N/C(=O)c1ccc(Cl)cc1)Nc1cc(C(F)(F)F)n[nH]1 [Compound A-107] | < 10 | < 10 | 
17 | O=C(/N=C(\Nc1cc(C(F)(F)F)n[nH]1)NC1CCC1)c1ccc(Cl)cc1 [Compound A-108] | < 10 | < 10 | 
18 | C[C@H](N/C(=N\C(=O)c1ccc(Cl)cc1)Nc1cc(C(F)(F)F)n[nH]1)C1CCCCC1 [Compound A-109] | < 10 | < 10 | 
19 | O=C(/N=C(\Nc1cc(C(F)(F)F)n[nH]1)NC1CCCOC1)c1ccc(Cl)cc1 (stereo not shown) [Compound A-110] | < 10 | < 10 | 
20 | COCC(C)N/C(=N/C(=O)c1ccc(Cl)cc1)Nc1cc(C(F)(F)F)n[nH]1 (stereo not shown) [Compound A-111] | < 10 | < 10 | 
21 | O=C(/N=C(/Nc1cc(C(F)(F)F)n[nH]1)NC1CCS(=O)(=O)C1)c1ccc(Cl)cc1 (stereo not shown) [Compound A-112] | < 10 | > 10 | 
22 | CC(C)N/C(=N/C(=O)c1ccc(Cl)c(F)c1)Nc1cc(C(F)(F)F)n[nH]1 [Compound A-113] | < 10 | < 10 | 
23 | O=C(/N=C(\Nc1cc(C(F)(F)F)n[nH]1)NC1CCC1)c1ccc(Cl)c(F)c1 [Compound A-114] | < 10 | < 10 | 
24 | O=C(/N=C(/Nc1cc(C(F)(F)F)n[nH]1)NC1CCCC1)c1ccc(Cl)c(F)c1 [Compound A-115] | < 10 | < 10 | 
25 | CCC(C)(C)N/C(=N/C(=O)c1ccc(Cl)c(F)c1)Nc1cc(C(F)(F)F)n[nH]1 [Compound A-116] | < 10 | < 10 | 

Second part, led by results:

Row | IC50 [2] [µM] | SMILES | EC50 ([1]; cytotoxicity in Ramos cells) [µM] | EC50 ([1]; Ramos) [µM]
26 | < 10 | CC(C)N/C(=N/C(=O)c1ccc(Cl)cc1)Nc1cc(C(F)F)[nH]n1 [Compound A-55] | > 10 | 
27 | < 10 | O=C(/N=C(/NCc1ccc(F)c(Cl)c1)Nc1cc(C(F)F)[nH]n1)c1ccc(Cl)cc1 [Compound A-56] | > 10 | 
28 | < 10 | O=C(/N=C(/Nc1cc(F)cc(Cl)c1)Nc1cc(C(F)F)[nH]n1)c1ccc(Cl)cc1 [Compound A-57] | < 10 | 
29 | < 10 | CC(C)N/C(=N/C(=O)c1ccc(C(F)(F)F)cc1)Nc1cc(C(F)F)[nH]n1 [Compound A-58] | > 10 | 
30 | < 10 | O=C(/N=C(/NCc1ccc(F)c(Cl)c1)Nc1cc(C(F)F)[nH]n1)c1ccc(C(F)(F)F)cc1 [Compound A-59] | > 10 | 
31 | < 10 | O=C(/N=C(/Nc1cc(F)cc(Cl)c1)Nc1cc(C(F)F)[nH]n1)c1ccc(C(F)(F)F)cc1 [Compound A-60] | < 10 | 
32 | < 10 | O=C(/N=C(/NCc1ccc(F)c(Cl)c1)Nc1cc(C(F)F)[nH]n1)c1ccc(F)c(F)c1 [Compound A-61] | > 10 | 
33 | < 10 | CC(C)(C)N/C(=N/C(=O)c1ccc(F)c(F)c1)Nc1cc(C(F)F)[nH]n1 [Compound A-62] | < 10 | 
34 | < 10 | CC(C)N/C(=N/C(=O)c1ccc(F)c(F)c1)Nc1cc(C(F)F)[nH]n1 [Compound A-63] | > 10 | 
35 | < 10 | CC(C)(C)N/C(=N/C(=O)c1ccc(C(F)F)cc1)Nc1cc(C(F)(F)F)[nH]n1 [Compound A-64] | < 10 | 
36 | < 10 | CC(C)(C)N/C(=N/C(=O)c1ccc(Cl)c(F)c1)Nc1cc(C(F)F)[nH]n1 [Compound A-65] | < 10 | 
37 | < 10 | CC(C)(C)CN/C(=N/C(=O)c1ccc(C(F)F)cc1)Nc1cc(C(F)(F)F)[nH]n1 [Compound A-66] | < 10 | 
38 | < 10 | O=C(/N=C(\Nc1cc(C(F)(F)F)[nH]n1)NC1CCCC1)c1ccc(C(F)F)cc1 [Compound A-67] | < 10 | 
39 | < 10 | CC(C)(C)CN/C(=N/C(=O)c1ccc(C(F)(F)F)cc1)Nc1cc(C(F)F)[nH]n1 [Compound A-68] | < 10 | 
40 | < 10 | CC(C)(C)CN/C(=N/C(=O)c1ccc(Cl)cc1)Nc1cc(C(F)F)[nH]n1 [Compound A-69] | < 10 | 
41 | < 10 | CC(C)(C)CN/C(=N/C(=O)c1ccc(C#N)cc1)Nc1cc(C(F)(F)F)[nH]n1 [Compound A-70] | < 10 | 
42 | < 10 | CC(C)(C)N/C(=N/C(=O)c1ccc(C#N)cc1)Nc1cc(C(F)(F)F)[nH]n1 [Compound A-71] | < 10 | 
43 | < 10 | CC(C)(C)CN/C(=N/C(=O)c1cccc(C#N)c1)Nc1cc(C(F)(F)F)[nH]n1 [Compound A-72] | < 10 | 
44 | < 10 | CC(C)(C)N/C(=N/C(=O)c1cccc(C#N)c1)Nc1cc(C(F)(F)F)[nH]n1 [Compound A-73] | < 10 | 

Row | IC50 [2] [µM] | SMILES | EC50 ([1]; cytotoxicity in Ramos cells) [µM] | EC50 ([1]; Ramos) [µM]
45 | < 10 | CCC(C)(C)N/C(=N/C(=O)c1ccc(C(F)F)cc1)Nc1cc(C(F)(F)F)[nH]n1 [Compound A-74] | < 10 | 
46 | < 10 | O=C(/N=C(\Nc1cc(C(F)(F)F)[nH]n1)NC1CCCC1)c1cccc(C(F)(F)F)c1 [Compound A-75] | < 10 | 
47 | < 10 | CC(C)(C)CN/C(=N/C(=O)c1cccc(C(F)(F)F)c1)Nc1cc(C(F)(F)F)[nH]n1 [Compound A-76] | < 10 | 
48 | < 10 | CC(C)(C)N/C(=N/C(=O)c1cccc(C(F)(F)F)c1)Nc1cc(C(F)(F)F)[nH]n1 [Compound A-77] | < 10 | 
49 | < 10 | CCC(C)(C)N/C(=N/C(=O)c1cccc(C(F)(F)F)c1)Nc1cc(C(F)(F)F)[nH]n1 [Compound A-78] | < 10 | 
50 | < 10 | CC(C)(C)N/C(=N/C(=O)c1ccc(C(F)(F)F)nc1)Nc1cc(C(F)(F)F)[nH]n1 [Compound A-79] | < 10 | 
51 | < 10 | CC(C)(C)CN/C(=N/C(=O)c1ccc(C(F)(F)F)nc1)Nc1cc(C(F)(F)F)[nH]n1 [Compound A-80] | < 10 | 
52 | < 10 | N#Cc1ccc(C(=O)/N=C(/NCc2ccc(F)cc2Cl)Nc2cc(C(F)(F)F)[nH]n2)cc1 [Compound A-81] | < 10 | 
53 | < 10 | O=C(/N=C(/NCc1ccc(F)cc1Cl)Nc1cc(C(F)(F)F)[nH]n1)c1ccc(C(F)F)cc1 [Compound A-83] | < 10 | 
54 | < 10 | Cc1cc(C(=O)/N=C(\Nc2cc(C(F)(F)F)[nH]n2)NC(C)(C)C)ccn1 [Compound A-84] | > 10 | 
55 | < 10 | Cc1cc(C(=O)/N=C(/NCC(C)(C)C)Nc2cc(C(F)(F)F)[nH]n2)ccn1 [Compound A-85] | > 10 | 
56 | < 10 | Cc1cc(C(=O)/N=C(/NCc2ccc(F)cc2Cl)Nc2cc(C(F)(F)F)[nH]n2)ccn1 [Compound A-86] | > 10 | 
57 | < 10 | O=C(/N=C(\Nc1cc(C(F)(F)F)[nH]n1)NC1CCCCCC1)c1ccc(C(F)F)cc1 [Compound A-87] | < 10 | 
58 | < 10 | CC(C)(C)CN/C(=N/C(=O)c1ccc(F)c(F)c1)Nc1cc(C(F)F)[nH]n1 [Compound A-88] | < 10 | 
59 | < 10 | CC(N/C(=N\C(=O)c1ccc(C(F)(F)F)cc1)Nc1cc(C(F)(F)F)n[nH]1)c1cccc(Cl)c1 (stereo not shown) [Compound A-89] | < 10 | 
60 | < 10 | CC(C)N/C(=N/C(=O)c1ccc(C(F)(F)F)cc1)Nc1cc(C(F)(F)F)n[nH]1 [Compound A-90] | < 10 | 
61 | < 10 | O=C(/N=C(\Nc1cc(C(F)(F)F)n[nH]1)NC1CCC1)c1ccc(C(F)(F)F)cc1 [Compound A-91] | < 10 | 
62 | < 10 | O=C(/N=C(/Nc1cc(C(F)(F)F)n[nH]1)NC1CCCC1)c1ccc(C(F)(F)F)cc1 [Compound A-92] | < 10 | 
